US20230086703A1, “N-(4-(5-chloropyridin-3-yl)phenyl)-2-(2-(cyclopropanesulfonamido)pyrimidin-4-yl) butanamide derivatives and related compounds as human CTPS1 inhibitors for the treatment of proliferative diseases” (Step Pharma S.A.S., priority 2019, published 2023)
Where two headings read alike, the source gives them in different places.

Biological target: T1, human CTPS1 (Homo sapiens, UniProt P17812)
T1 construct: FLAG (with GG linker); His8 (with GG linker); purchased Proteros biostructures GmbH
T1 sequence (P17812 1-591): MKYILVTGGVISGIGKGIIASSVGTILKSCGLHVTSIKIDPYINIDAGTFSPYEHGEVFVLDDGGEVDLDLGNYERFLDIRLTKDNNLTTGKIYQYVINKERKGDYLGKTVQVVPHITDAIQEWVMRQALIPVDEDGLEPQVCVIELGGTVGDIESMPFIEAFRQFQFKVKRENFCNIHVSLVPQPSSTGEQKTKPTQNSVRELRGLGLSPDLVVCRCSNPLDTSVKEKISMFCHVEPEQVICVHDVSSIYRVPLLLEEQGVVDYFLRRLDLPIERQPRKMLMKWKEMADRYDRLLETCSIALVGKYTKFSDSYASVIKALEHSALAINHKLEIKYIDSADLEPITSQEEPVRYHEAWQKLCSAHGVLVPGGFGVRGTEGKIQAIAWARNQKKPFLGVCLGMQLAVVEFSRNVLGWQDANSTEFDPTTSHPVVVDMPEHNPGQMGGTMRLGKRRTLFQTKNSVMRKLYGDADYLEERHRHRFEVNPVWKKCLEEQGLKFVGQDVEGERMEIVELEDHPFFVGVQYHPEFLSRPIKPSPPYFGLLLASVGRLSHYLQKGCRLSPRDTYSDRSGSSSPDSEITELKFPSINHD
Assay: Human CTPS1 enzyme inhibition, ADP-Glo Max assay
Assay type: biochemical
Summary of the method: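 Read-out is ADP-Glo Max luminescence: residual ATP depleted (60 min), then produced ADP converted back to ATP for luciferase detection (60 min). Beforehand, protein and compound were mixed for 10 min at 25 °C in Tris buffer pH 8.0 with MgCl2, Tween-20 and 2 mM L-cysteine. Results expressed as percentage inhibition per concentration.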

[1] = ADP-Glo Max assay, Table 10, read-out: Human CTPS1 Enzyme Inhibition, IC50 grouped by potency range (CTPS1)

Row | SMILES | IC50 [1] [nM] | also measured
1 | Cc1cncc(-c2ccc(NC(=O)C(C)(C)c3csc(NS(=O)(=O)C4CC4)n3)cc2)n1 [T266, 2-(2-(cyclopropanesulfonamido)thiazol-4-yl)-2-methyl-N-(4-(6-methylpyrazin-2-yl)phenyl)propanamide] | < 100 | 
2 | COc1cncc(-c2ccc(NC(=O)C3(c4csc(NS(=O)(=O)C5CC5)n4)CCCC3)cc2)n1 [T130, 1-(2-(cyclopropanesulfonamido)thiazol-4-yl)-N-(4-(6-methoxypyrazin-2-yl)phenyl)cyclopentane-1-carboxamide] | < 100 | 
3 | Cc1ncccc1-c1ccc(NC(=O)C(C)(C)c2csc(NS(=O)(=O)C3CC3)n2)cc1 [T103, 2-(2-(cyclopropanesulfonamido)thiazol-4-yl)-2-methyl-N-(4-(2-methylpyridin-3-yl)phenyl)propanamide] | 100 to 1000 | 
4 | CC(C)(C(=O)Nc1ccc(-c2cncc(OC3CC3)n2)cc1)c1csc(NS(=O)(=O)C2CC2)n1 [T273, 2-(2-(cyclopropanesulfonamido)thiazol-4-yl)-N-(4-(6-cyclopropoxypyrazin-2-yl)phenyl)-2-methylpropanamide] | < 100 | 
5 | CC(C)(C(=O)Nc1ccc(-c2cncc(C(F)(F)F)c2)cc1F)c1csc(NS(C)(=O)=O)n1 [T426, N-(2-fluoro-4-(5-(trifluoromethyl)pyridin-3-yl)phenyl)-2-methyl-2-(2-(methylsulfonamido)thiazol-4-yl)propanamide] | 100 to 1000 | 
6 | CCOc1cncc(-c2ccc(NC(=O)C3(c4ccnc(NS(=O)(=O)C5CC5)n4)CCN(C(=O)OC(C)(C)C)CC3)nc2)n1 [P139, tert-butyl 4-(2-(cyclopropanesulfonamido)pyrimidin-4-yl)-4-((5-(6-ethoxypyrazin-2-yl)pyridin-2-yl)carbamoyl)piperidine-1-carboxylate] |  | IC50 (ADP-Glo Max assay, human full length CTPS1, read-out: CTPS1 (Human CTPS1 Enzyme Inhibition data grouped by potency range, IC50)): < 100 nM
7 | COc1cccc(-c2ccc(NC(=O)C(C)(C)c3csc(NS(=O)(=O)C4CC4)n3)nc2)c1 [T232, 2-(2-(cyclopropanesulfonamido)thiazol-4-yl)-N-(5-(3-methoxyphenyl)pyridin-2-yl)-2-methylpropanamide] | 100 to 1000 | 
8 | CC(C)(C(=O)Nc1ccc(-c2cccnn2)cc1)c1csc(NS(=O)(=O)C2CC2)n1 [T68, 2-(2-(cyclopropanesulfonamido)thiazol-4-yl)-2-methyl-N-(4-(pyridazin-3-yl)phenyl)propanamide] | 100 to 1000 | 
9 | COc1cc(F)cc(-c2ccc(NC(=O)C(C)(C)c3csc(NS(=O)(=O)C4CC4)n3)nc2)c1 [T233, 2-(2-(cyclopropanesulfonamido)thiazol-4-yl)-N-(5-(3-fluoro-5-methoxyphenyl)pyridin-2-yl)-2-methylpropanamide] | 1000 to 10000 | 
10 | Cc1cc(NC(=O)C(C)(C)c2csc(NS(=O)(=O)C3CC3)n2)ccc1-c1cncc(C#N)c1 [T322, N-(4-(5-cyanopyridin-3-yl)-3-methylphenyl)-2-(2-(cyclopropanesulfonamido)thiazol-4-yl)-2-methylpropanamide] | 100 to 1000 | 
11 | CC(C)(C(=O)Nc1ccc(-c2cccnc2)cn1)c1csc(NS(=O)(=O)C2CC2)n1 [T148, N-([3,3′-bipyridin]-6-yl)-2-(2-(cyclopropanesulfonamido)thiazol-4-yl)-2-methylpropanamide] | 100 to 1000 | 
12 | Cc1cc(-c2cncc(Cl)c2)cc(C)c1NC(=O)C(C)(C)c1csc(NS(=O)(=O)C2CC2)n1 [T321, N-(4-(5-chloropyridin-3-yl)-2,6-dimethylphenyl)-2-(2-(cyclopropanesulfonamido)thiazol-4-yl)-2-methylpropanamide] | < 100 | 
13 | Cc1ccc(-c2ccc(NC(=O)Cc3csc(NS(=O)(=O)C4CC4)n3)cc2)cn1 [T101, 2-(2-(cyclopropanesulfonamido)thiazol-4-yl)-N-(4-(6-methylpyridin-3-yl)phenyl)acetamide] | 1000 to 10000 | 
14 | Cc1cnc(C)c(-c2ccc(NC(=O)C(C)(C)c3csc(NS(=O)(=O)C4CC4)n3)cc2)n1 [T284, 2-(2-(cyclopropanesulfonamido)thiazol-4-yl)-N-(4-(3,6-dimethylpyrazin-2-yl)phenyl)-2-methylpropanamide] | 1000 to 10000 | 
15 | COc1cc(-c2cccnc2)ccc1NC(=O)C(C)(C)c1csc(NS(=O)(=O)C2CC2)n1 [T149, 2-(2-(cyclopropanesulfonamido)thiazol-4-yl)-N-(2-methoxy-4-(pyridin-3-yl)phenyl)-2-methylpropanamide] | < 100 | 
16 | CCOc1cncc(-c2ccc(CNC(C)(C)c3csc(NS(=O)(=O)C4CC4)n3)c(F)c2)n1 [R94, N-(4-(2-((4-(6-Ethoxypyrazin-2-yl)-2-fluorobenzyl)amino)propan-2-yl)thiazol-2-yl)cyclopropanesulfonamide] |  | inhibition of CTPS1 enzyme (result in words) (ADP-Glo Max assay): activity is retained; IC50 (Table 14, ADP-Glo Max assay, read-out: CTPS1 (Human CTPS1 Enzyme Inhibition data grouped by potency range)): < 100 nM
17 | CCCOc1cncc(-c2ccc(NC(=O)C(C)(C)c3csc(NS(=O)(=O)C4CC4)n3)cc2)c1 [T157, 2-(2-(cyclopropanesulfonamido)thiazol-4-yl)-2-methyl-N-(4-(5-propoxypyridin-3-yl)phenyl)propanamide] | < 100 | 
18 | CC(C)(C(=O)Nc1ccc(-c2cccnc2C(F)(F)F)cc1)c1csc(NS(=O)(=O)C2CC2)n1 [T248, 2-(2-(cyclopropanesulfonamido)thiazol-4-yl)-2-methyl-N-(4-(2-(trifluoromethyl)pyridin-3-yl)phenyl)propanamide] | 1000 to 10000 | 
19 | Cc1cc(-c2cncc(F)c2)ccc1NC(=O)C(C)(C)c1csc(NS(=O)(=O)C2CC2)n1 [T287, 2-(2-(cyclopropanesulfonamido)thiazol-4-yl)-N-(4-(5-fluoropyridin-3-yl)-2-methylphenyl)-2-methylpropanamide] | < 100 | 
20 | CCCOc1cncc(-c2ccc(NC(=O)C(C)(C)c3csc(NS(=O)(=O)C4CC4)n3)nc2)c1 [T146, 2-(2-(cyclopropanesulfonamido)thiazol-4-yl)-2-methyl-N-(5′-propoxy-[3,3′-bipyridin]-6-yl)propanamide] | 100 to 1000 | 
21 | CC(C)(C(=O)Nc1ccc(-c2cncc(C#N)c2)cn1)c1csc(NS(=O)(=O)C2CC2)n1 [T226, N-(5′-cyano-[3,3′-bipyridin]-6-yl)-2-(2-(cyclopropanesulfonamido)thiazol-4-yl)-2-methylpropanamide] | < 100 | 
22 | CC(C)(C(=O)Nc1ccc(-c2cncc(Cl)c2)cc1)c1csc(NS(=O)(=O)C2(C)CC2)n1 [T300, N-(4-(5-chloropyridin-3-yl)phenyl)-2-methyl-2-(2-((1-methylcyclopropane)-1-sulfonamido)thiazol-4-yl)propanamide] | 100 to 1000 | 
23 | CC(C)(C(=O)Nc1ccc(-c2cccc(OC(F)(F)F)c2)cn1)c1csc(NS(=O)(=O)C2CC2)n1 [T236, 2-(2-(cyclopropanesulfonamido)thiazol-4-yl)-2-methyl-N-(5-(3-(trifluoromethoxy)phenyl)pyridin-2-yl)propanamide] | 100 to 1000 | 
24 | CC(C)(C(=O)Nc1ccc(-c2cncc(Cl)c2)cc1F)c1csc(NS(=O)(=O)C2CC2)n1 [T128, N-(4-(5-chloropyridin-3-yl)-2-fluorophenyl)-2-(2-(cyclopropanesulfonamido)thiazol-4-yl)-2-methylpropanamide] | < 100 | 
25 | CC(C)(C(=O)Nc1ccc(-c2cccc(C(F)(F)F)n2)cn1)c1csc(NS(=O)(=O)C2CC2)n1 [T51, 2-(2-(cyclopropanesulfonamido)thiazol-4-yl)-2-methyl-N-(6-(trifluoromethyl)-[2,3′-bipyridin]-6′-yl)propanamide] | < 100 | 
26 | CCOc1cncc(-c2ccc(NC(=O)C(C)(C)c3csc(NS(C)(=O)=O)n3)c(C(F)(F)F)c2)n1 [T429, N-(4-(6-ethoxypyrazin-2-yl)-2-(trifluoromethyl)phenyl)-2-methyl-2-(2-(methylsulfonamido)thiazol-4-yl)propanamide] | < 100 | 
27 | CC(C)(C(=O)Nc1ccc(-c2ccccc2)cc1)c1csc(NS(=O)(=O)C2CC2)n1 [T97, N-([1,1′-biphenyl]-4-yl)-2-(2-(cyclopropanesulfonamido)thiazol-4-yl)-2-methylpropanamide] | 100 to 1000 | 
28 | CC(C)(C(=O)Nc1ccc(-c2cccnc2)cc1)c1csc(NS(=O)(=O)C(C)(C)C)n1 [T303, 2-(2-((1,1-dimethylethyl)sulfonamido)thiazol-4-yl)-2-methyl-N-(4-(pyridin-3-yl)phenyl)propanamide] | 1000 to 10000 | 
